This experiment addresses Glycogen synthase kinase-3 beta splice variant X1 (Bos taurus) (UniProt A0A059UE90). The experiment in a line: Inhibition of bovine cerebral TPK1 assessed as reduction in P-GS1 phosphorylation using [32gammaP]ATP incubated for 2 hrs by liquid scintillation counting method.

Calls of active or inactive are those of the source. How the calls were made is not given here.

Regarding `C[C@@H]1CN(c2ccc([C@H]3CN(c4nc(-c5ccncc5F)cc(=O)n4C)CCO3)cc2)C[C@H](C)O1`, the inhibition result was “Active”.

On to `CC(O)c1ccc([C@H]2CN(c3nc(-c4ccncc4F)cc(=O)n3C)CCO2)cc1` (some centres not stated), for which the inhibition result is “Active”.

On to `Cn1c(N2CCO[C@@H](c3ccc(NC(=O)C4CCCC4)cc3)C2)nc(-c2ccncc2F)cc1=O`, for which the inhibition entry was “Active”.

As for `Cn1c(N2CCN[C@@H](c3ccc(N4CC[C@H](C#N)C4)cc3)C2)nc(-c2ccncc2F)cc1=O`, the inhibition entry is “Active”.

For `COC(C)(C)C(=O)N(C)c1ccc([C@H]2CN(c3nc(-c4ccncc4F)cc(=O)n3C)CCO2)cc1`, the inhibition entry is “Active”.

On to `CSc1ccc([C@H]2CN(c3nc(-c4ccncc4F)cc(=O)n3C)CCO2)cc1`, for which the inhibition entry is “Active”.

Regarding `Cn1c(N2CCO[C@@H](c3ccc(N(CC(F)(F)F)CC(F)(F)F)cc3)C2)nc(-c2ccncc2F)cc1=O`, the inhibition result is “Active”.

For the molecule `COc1ccc(C#N)cc1[C@H]1CN(c2nc(-c3ccncc3F)c(F)c(=O)n2C)CCO1`, the inhibition result was “Active”.

As for `Cn1c(N2CCN[C@@H](c3ccc(N4CCN(CCO)CC4)cc3)C2)nc(-c2ccncc2F)cc1=O`, the inhibition result is “Active”.

Take `CCN(CC)c1ccc([C@H]2CN(c3nc(-c4ccncc4F)cc(=O)n3C)CCO2)cc1`: the inhibition result was “Active”.

Consider `Cn1c(N2CCO[C@@H](c3ccc(N4CC(O)C4)cc3)C2)nc(-c2ccncc2F)cc1=O`, for which the inhibition entry is “Active”.

`Cn1c(N2CCO[C@@H](c3ccc(NC(=O)OCc4ccccc4)cc3)C2)nc(-c2ccncc2F)cc1=O`: the inhibition result is “Active”.

Consider `CN(C)[C@H]1CCN(c2ccc([C@H]3CN(c4nc(-c5ccncc5F)cc(=O)n4C)CCN3)cc2)C1`, for which the inhibition result is “Active”.

As for `Cn1c(N2CCOC(c3ccc4c(c3)C(C)(C)CC(=O)N4)C2)nc(-c2ccncc2F)cc1=O` (racemic), the inhibition entry was “Active”.

`CN(c1ccc([C@H]2CN(c3nc(-c4ccncc4F)cc(=O)n3C)CCO2)cc1)C1CCCCCC1`: the inhibition entry is “Active”.

Regarding `Cn1c(N2CCO[C@@H](c3ccc(N(C4CCCCC4)S(C)(=O)=O)cc3)C2)nc(-c2ccncc2F)cc1=O`, the inhibition result is “Active”.

Regarding `Cn1c(N2CCO[C@@H](c3ccc(NC(=S)Nc4cccnc4)cc3)C2)nc(-c2ccncc2F)cc1=O`, the inhibition result is “Active”.

`CN(C)S(=O)(=O)c1ccc([C@H]2CN(c3nc(-c4ccncc4F)cc(=O)n3C)CCO2)cc1`: the inhibition entry is “Active”.

For the molecule `Cn1c(N2CCO[C@@H](c3ccc(OCCN4CCCCC4)cc3)C2)nc(-c2ccncc2F)cc1=O`, the inhibition result was “Active”.

`CCCCOc1ccc(-c2ccc([C@H]3CN(c4nc(-c5ccncc5F)cc(=O)n4C)CCN3)cc2)cc1`: the inhibition entry is “Active”.

In the case of `Cn1c(N2CCO[C@@H](c3ccc(NC(=O)c4ccccc4)cc3)C2)nc(-c2ccncc2F)cc1=O`, the inhibition result is “Active”.

As to `Cn1c(N2CCO[C@@H](c3ccc(N(C(=O)C4CC4)C4CCCCC4)cc3)C2)nc(-c2ccncc2F)cc1=O`, the inhibition entry was “Active”.

In the case of `Cn1c(N2CCOC(c3ccccc3OCCCN)C2)nc(-c2ccncc2F)cc1=O` (configuration not stated), the inhibition entry is “Active”.

For the molecule `Cc1nc(-c2ccc([C@H]3CN(c4nc(-c5ccncc5F)cc(=O)n4C)CCO3)cc2)no1`, the inhibition entry was “Active”.

Take `Cc1nc(-c2ccc(C3CN(c4nc(-c5ccncc5F)cc(=O)n4C)CCN3)cc2)no1` (configuration not stated): the inhibition entry was “Active”.

`Cn1c(N2CCN[C@@H](c3ccc(-c4ccc(C(F)(F)F)cc4)cc3)C2)nc(-c2ccncc2F)cc1=O`: the inhibition entry was “Active”.

On to `CN(c1ccc([C@H]2CN(c3nc(-c4ccncc4F)cc(=O)n3C)CCO2)cc1)C1CCCC1`, for which the inhibition result is “Active”.

For the molecule `CCN(c1ccc([C@H]2CN(c3nc(-c4ccncc4F)cc(=O)n3C)CCO2)cc1)C1CCCCC1`, the inhibition result is “Active”.

Consider `Cn1c(N2CCO[C@@H](c3ccc(NS(=O)(=O)CCl)cc3)C2)nc(-c2ccncc2F)cc1=O`, for which the inhibition entry is “Active”.

For `CC(=O)OCCN1CCN(c2ccc([C@H]3CN(c4nc(-c5ccncc5F)cc(=O)n4C)CCN3)cc2)CC1`, the inhibition entry is “Active”.

On to `Cn1c(N2CCO[C@@H](c3ccc(C(=O)NCCO)cc3)C2)nc(-c2ccncc2F)cc1=O`, for which the inhibition result was “Active”.

As for `Cn1c(N2CCO[C@@H](c3ccc(OCCN4CCNCC4)cc3)C2)nc(-c2ccncc2F)cc1=O`, the inhibition entry is “Active”.

For the molecule `Cn1c(N2CCO[C@@H](c3ccc(OCCCN4CCOCC4)cc3)C2)nc(-c2ccncc2F)cc1=O`, the inhibition entry is “Active”.

Regarding `Cn1c(N2CCN[C@@H](c3ccc(N4CCC(N5CCCC5)CC4)cc3)C2)nc(-c2ccncc2F)cc1=O`, the inhibition result is “Active”.

For the molecule `COc1ccc([C@H]2CN(c3nc(-c4ccncc4F)cc(=O)n3C)CCO2)cc1`, the inhibition entry is “Active”.

On to `CCN(CC)CCCOc1ccc([C@H]2CN(c3nc(-c4ccncc4F)cc(=O)n3C)CCO2)cc1`, for which the inhibition entry is “Active”.

Take `COc1ccc(NS(C)(=O)=O)cc1[C@H]1CN(c2nc(-c3ccncc3F)cc(=O)n2C)CCO1`: the inhibition entry is “Active”.

Regarding `Cn1c(N2CCN[C@@H](c3ccc(-c4ccc(S(C)(=O)=O)cc4)cc3)C2)nc(-c2ccncc2F)cc1=O`, the inhibition result is “Active”.

In the case of `COc1ccc(-c2ccc([C@H]3CN(c4nc(-c5ccncc5F)cc(=O)n4C)CCN3)cc2)c(OC)c1`, the inhibition entry was “Active”.

Consider `Cn1c(N2CCN[C@@H](c3ccc(N4CC[C@@H](O)C4)cc3)C2)nc(-c2ccncc2F)cc1=O`, for which the inhibition result is “Active”.

As to `Cn1c(N2CCOC(c3cccc(-c4cncnc4)c3)C2)nc(-c2ccncc2F)cc1=O` (racemic), the inhibition entry was “Active”.

As to `Cn1c(N2CCO[C@@H](c3ccc(OCCN4CCN(C(=O)c5ccccc5)CC4)cc3)C2)nc(-c2ccncc2F)cc1=O`, the inhibition result is “Active”.

Regarding `Cn1c(N2CCO[C@@H](c3ccc(N4CCCCC4=O)cc3)C2)nc(-c2ccncc2F)cc1=O`, the inhibition entry is “Active”.

On to `CN(C)C(=O)c1ccc([C@H]2CN(c3nc(-c4ccncc4F)cc(=O)n3C)CCO2)cc1`, for which the inhibition result was “Active”.

Take `Cn1c(N2CCO[C@@H](c3ccc(OCCCN4CCCCC4)cc3)C2)nc(-c2ccncc2F)cc1=O`: the inhibition entry is “Active”.

Regarding `CN(C)c1cccc2c(S(=O)(=O)Nc3ccc([C@H]4CN(c5nc(-c6ccncc6F)cc(=O)n5C)CCO4)cc3)cccc12`, the inhibition entry is “Active”.

Turning to `C[C@@H]1CN(c2ccc([C@H]3CN(c4nc(-c5ccncc5F)cc(=O)n4C)CCN3)cc2)C[C@H](C)O1`, the inhibition entry is “Active”.

Turning to `Cn1c(N2CCO[C@@H](c3ccc(N(C4CCCCC4)S(=O)(=O)c4ccccc4)cc3)C2)nc(-c2ccncc2F)cc1=O`, the inhibition entry was “Active”.

Turning to `COc1cc(N(C)C)ccc1[C@H]1CN(c2nc(-c3ccncc3F)cc(=O)n2C)CCO1`, the inhibition entry is “Active”.

For `CN(C)C1CCN(c2ccc([C@H]3CN(c4nc(-c5ccncc5F)cc(=O)n4C)CCN3)cc2)CC1`, the inhibition result is “Active”.

For the molecule `CC(=O)N(c1ccc([C@H]2CN(c3nc(-c4ccncc4F)cc(=O)n3C)CCO2)cc1)C1CCCCC1`, the inhibition entry is “Active”.

Regarding `Cn1c(N2CCO[C@@H](c3ccc(NC(=O)C4(C)CC4)cc3)C2)nc(-c2ccncc2F)cc1=O`, the inhibition entry was “Active”.

`C[C@@H]1CN(c2ccc([C@H]3CN(c4nc(-c5ccncc5F)cc(=O)n4C)CCO3)cc2)C[C@H](C)N1`: the inhibition entry was “Active”.

As for `Cn1c(N2CCO[C@@H](c3ccc(NC(=O)C4CC4)cc3)C2)nc(-c2ccncc2F)cc1=O`, the inhibition entry was “Active”.

Turning to `CN1CCC(Oc2ccc([C@H]3CN(c4nc(-c5ccncc5F)cc(=O)n4C)CCO3)cc2)CC1`, the inhibition entry is “Active”.

In the case of `C[C@@H]1CN(c2ccc([C@H]3CN(c4nc(-c5ccncc5F)cc(=O)n4C)CCN3)cc2)C[C@H](C)N1`, the inhibition entry was “Active”.

For `CN1CCN(CCOc2ccc([C@H]3CN(c4nc(-c5ccncc5F)cc(=O)n4C)CCO3)cc2)CC1`, the inhibition entry was “Active”.

`Cn1c(N2CCO[C@@H](c3ccc(F)c(N)c3)C2)nc(-c2ccncc2F)cc1=O`: the inhibition result is “Active”.

On to `Cn1c(N2CCO[C@@H](c3ccc(Nc4cccnc4)cc3)C2)nc(-c2ccncc2F)cc1=O`, for which the inhibition result is “Active”.

As for `Cn1c(N2CCN[C@@H](c3ccc(-c4ccc(Cl)c(Cl)c4)cc3)C2)nc(-c2ccncc2F)cc1=O`, the inhibition entry is “Active”.

For `COc1ccc(C(C)(C)O)cc1[C@H]1CN(c2nc(-c3ccncc3F)cc(=O)n2C)CCO1`, the inhibition entry was “Active”.

In the case of `CC(=O)Nc1ccc([C@H]2CN(c3nc(-c4ccncc4F)cc(=O)n3C)CCO2)cc1`, the inhibition result is “Active”.

As to `Cn1c(N2CCO[C@@H](c3ccc(N4CC[C@H](N5CCCC5)C4)cc3)C2)nc(-c2ccncc2F)cc1=O`, the inhibition entry was “Active”.

For `Cn1c(N2CCN[C@@H](c3ccc(-c4ccc(C#N)cc4)cc3)C2)nc(-c2ccncc2F)cc1=O`, the inhibition entry is “Active”.

Regarding `Cn1c(N2CCN[C@@H](c3ccc(-c4ccc(C(C)(C)C)cc4)cc3)C2)nc(-c2ccncc2F)cc1=O`, the inhibition result was “Active”.

As to `Cn1c(N2CCNC(c3ccc(N4CCN(C(=O)OCc5ccccc5)CC4)cc3)C2)nc(-c2ccncc2F)cc1=O` (configuration not stated), the inhibition result was “Active”.

Turning to `Cn1c(N2CCO[C@@H](c3ccc(N4CCOC4=O)cc3)C2)nc(-c2ccncc2F)cc1=O`, the inhibition entry was “Active”.

On to `Cc1ccc(-c2ccc([C@H]3CN(c4nc(-c5ccncc5F)cc(=O)n4C)CCN3)cc2)cc1`, for which the inhibition result is “Active”.

Turning to `Cn1c(N2CCO[C@@H](c3ccc(NC(=O)C(C)(C)O)cc3)C2)nc(-c2ccncc2F)cc1=O`, the inhibition entry is “Active”.

For `CN1CCC2(CCN(c3ccc([C@H]4CN(c5nc(-c6ccncc6F)cc(=O)n5C)CCN4)cc3)CC2)C1`, the inhibition entry was “Active”.

For the molecule `CN(C)CCCOc1ccc([C@H]2CN(c3nc(-c4ccncc4F)cc(=O)n3C)CCO2)cc1`, the inhibition result is “Active”.

With `Cn1c(N2CCO[C@@H](c3cccc(NS(C)(=O)=O)c3)C2)nc(-c2ccncc2F)cc1=O`, the inhibition entry was “Active”.

For the origin of these results see ChEMBL document CHEMBL3727346, “6-(pyridinyl)-4-pyrimidone derivates as tau protein kinase 1 inhibitors” (2011).
